From publication PMC6792352, “Limited Chemical Structural Diversity Found to Modulate Thyroid Hormone Receptor in the Tox21 Chemical Library” (Environmental Health Perspectives, 2019)
Like-named read-outs stand apart in the source and are kept apart here.

Assays:
[1] = molecular target: T1, human TRβ ligand-binding domain (Homo sapiens, UniProt P10828); test: TRb-coa LanthaScreen TR-FRET coactivator (SRC-2 peptide) recruitment, agonist (TOX21_TRB_COA_Agonist_Followup_ratio, aeid 2244); assay type: biochemical; design: host or cells: GeneBLAzer UAS-bla HEK 293T; conditions: for TRb-coa hitc: hit call from tcpl; for Emax: read-out: EMax (% of Control) trb-coa-agonist-followup-1
T1 sequence (P10828 217-461 limits assumed): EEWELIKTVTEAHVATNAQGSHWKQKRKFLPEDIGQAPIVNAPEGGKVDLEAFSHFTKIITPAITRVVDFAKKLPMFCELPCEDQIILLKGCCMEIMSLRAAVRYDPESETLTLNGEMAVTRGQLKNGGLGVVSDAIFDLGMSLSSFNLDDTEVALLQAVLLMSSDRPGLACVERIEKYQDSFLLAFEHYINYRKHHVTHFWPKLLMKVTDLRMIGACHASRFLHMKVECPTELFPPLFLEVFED

[2] = Global cytotoxicity: eighteen Tox21 cell viability assays; assay type: cell-based; conditions: read-out: Global cytotoxicity AC50 median
[3] = tested on: Tox21 cell viability assays (different cell types); test: as above; assay type: cell-based
[4] = tested on: thyroid hormone receptor (endogenous TRα and TRβ); test: GH3-TRE-Ag primary qHTS, luciferase reporter, agonist mode (TOX21_TR_LUC_GH3_Agonist, aeid 803); assay type: cell-based, rat; conditions: for GH3-TRE-Ag AC50 hitc: hit call from tcpl; for AC50: read-out: GH3-TRE-Ag AC50
[5] = tested on: thyroid hormone receptor (TR); test: Classification of TR actives across characterization assays (TR-Ag / RXR-Ag; TR model binary); design: key to Categorization Code: FP, false positive; conditions: for Categorization Code: TR agonist characterization; for Classification: TR-Ag = TR agonist, RXR-Ag = RXR agonist
Procedure, shortened: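 GH3-TRE qHTS agonist, antagonist and viability modes over 8,305 compounds; 84 candidates rescreened in GH3-TRE-Ag, TRβ- and RXRα-UAS-bla HEK 293T one-hybrid assays, HEK293T viability, and TRα/TRβ coactivator recruitment. Actives classified binary after removing pharmaceuticals.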

[6] = tested on: thyroid hormone receptor (endogenous TRα and TRβ); test: GH3-TRE-Ag-Followup confirmation (TOX21_TR_LUC_GH3_Agonist_Followup, aeid 2226); assay type: cell-based, rat; conditions: for AC50: read-out: GH3-TRE-Ag-Followup AC50; for GH3-TRE-Ag-Followup hitc: hit call from tcpl
[7] = molecular target: T1, human TRβ ligand-binding domain; test: TRb-bla agonist mammalian one-hybrid beta-lactamase assay (TOX21_TRB_BLA_Agonist_Followup_ratio, aeid 2236); assay type: cell-based; design: host or cells: GeneBLAzer UAS-bla HEK 293T; conditions: for TRb-bla hitc: hit call from tcpl; for Emax: read-out: EMax (% of Control) trb-bla-agonist-followup-1
[8] = GH3-TRE-Via cell viability, CellTiter-Fluor (TOX21_TR_LUC_GH3_Antagonist_viability, aeid 805); conditions: rat
[9] = molecular target: T2, TRα ligand-binding domain (Homo sapiens, UniProt P10827); test: TRa-coa LanthaScreen TR-FRET coactivator (SRC-2 peptide) recruitment, agonist (TOX21_TRA_COA_Agonist_Followup_ratio, aeid 2230); assay type: biochemical; conditions: for TRa-coa hitc: hit call from tcpl; for Emax: read-out: EMax (% of Control) tra-coa-agonist-followup-1
T2 construct: the receptor LBDs expressed as glutathione S-transferase (GST) fusion proteins; purchased
T2 sequence (P10827 163-410 isoform P10827-2 limits assumed, other chains not shown): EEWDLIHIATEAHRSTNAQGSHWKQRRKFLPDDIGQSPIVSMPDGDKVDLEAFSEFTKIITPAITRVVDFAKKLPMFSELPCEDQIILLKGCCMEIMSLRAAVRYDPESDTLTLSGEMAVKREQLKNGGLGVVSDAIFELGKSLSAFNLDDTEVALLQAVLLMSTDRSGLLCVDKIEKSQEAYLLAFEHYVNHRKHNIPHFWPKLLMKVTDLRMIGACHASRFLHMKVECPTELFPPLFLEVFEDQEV

[10] = tested on: GH3-TRE-Luc cell line; conditions: rat, 24 h
[11] = tested on: thyroid hormone receptor (endogenous TRα and TRβ); test: GH3-TRE-Antag primary qHTS, luciferase reporter, antagonist mode with 1 nM T3 (TOX21_TR_LUC_GH3_Antagonist, aeid 804); assay type: cell-based, rat; conditions: antagonist mode, 1 nM T3; read-out: GH3-TRE-Antag AC50
[12] = molecular target: T3, human RXRα (Homo sapiens, UniProt P19793); test: RXRa-bla-Ag mammalian one-hybrid beta-lactamase assay (TOX21_TR_RXR_BLA_Agonist_Followup_ratio, aeid 2253); assay type: cell-based
T3 construct: host or cells: GeneBLAzer UAS-bla HEK 293T
T3 sequence (P19793 227-458 limits assumed): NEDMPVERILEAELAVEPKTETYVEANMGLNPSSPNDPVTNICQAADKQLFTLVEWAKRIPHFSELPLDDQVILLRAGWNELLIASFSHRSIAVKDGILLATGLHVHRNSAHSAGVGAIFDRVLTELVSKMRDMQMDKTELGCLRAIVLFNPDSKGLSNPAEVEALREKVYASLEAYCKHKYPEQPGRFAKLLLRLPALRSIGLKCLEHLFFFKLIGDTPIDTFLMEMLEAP

[13] = tested on: thyroid hormone receptor (endogenous TRα and TRβ); test: cells; design: species or system GH3-TRE-Luc (rat pituitary); GH3-TRE-Luc luciferase reporter transactivation, agonist mode, qHTS; RXR ligands can also activate indirectly; conditions: 24 h, read-out: TR_LUC_GH3_Agonist_AC50 (uM)
[14] = tested on: GH3-TRE-Luc cell line; test: GH3-TRE-Via cell viability, CellTiter-Fluor (TOX21_TR_LUC_GH3_Antagonist_viability, aeid 805); conditions: Rattus norvegicus, read-out: TR_LUC_GH3_Antagonist_viability AC50 (uM)
[15] = cell-free coactivator recruitment, read-out: TRb-coa-Ag AC50
[16] = median over 18 Tox21 cell viability assays (Judson et al. 2016, invitrodb_v2)
[17] = HEK 293T one-hybrid, agonist mode, read-out: TRb-bla-Ag AC50
[18] = cell-free coactivator recruitment, read-out: TRa-coa-Ag AC50
[19] = median over Tox21 viability assays

Row | Structure (SMILES) | Categorization Code [5] | Classification [5] | AC50 [1, 15] | TRb-coa hitc ([1]; agonist) | Emax [1] | AC50 [2, 16] | GLOBAL CYTOTOXICITY cytotox.median [3] | GLOBAL CYTOTOXICITY cytotox.number_Active [3] | EMax (% of Control) gh3-tre-agonist [4] | GH3-TRE-Ag AC50 hitc [4] | EMax (% of Control) gh3-tre-agonist-followup-1_agonist [6] | AC50 ([6]; confirmation, agonist mode) | GH3-TRE-Ag-Followup hitc [6] | TRb-bla hitc ([7]; agonist) | Emax [7] | AC50 at 24 h [8] | AC50 [9, 18] | TRa-coa hitc ([9]; agonist) | Emax [9] | TR_LUC_GH3_Antagonist_viability hitc [10] | also measured
1 | CC1=C(/C=C/C(C)=C/C=C/C(C)=C\C(=O)O)C(C)(C)CCC1 [13-cis Retinoic acid, reference compound] | RXR-Ag | RXR-Ag | > 92 µM | 0 | -0.0945% | 46.3 µM | 46.3 | 5 | 29.3 % of Control | 1 | 46.3 % of Control | 0.0348 µM | 1 | 0 | 6.8% | 81.3 µM | > 92 µM | 0 | -0.319% | 1 | activity in TRb-coa biochemical assay [1]: not active; activity in GH3-TRE agonist assay [4]: partial agonist; EMax in GH3-TRE-Ag assay ([4]; percent of positive control T3): 24 % of control; activity in TRβ-bla as agonist [7]: not active; AC50 [7, 17]: > 92 µM
2 | Cc1ccc2c(Cl)cc(Cl)c(O)c2n1 [5,7-Dichloro-8-hydroxy-2-methylquinoline] | – | – | – | – | – | – | – | – | – | – | – | – | – | – | – | 1.56 µM | – | – | – | – | AC50 ([2]; median over 18 Tox21 cell viability assays, inactive set to 1,000): 13.6 µM; Active in global cytotoxicity assays (%) ([3]; percentage of 18 Tox21 viability assays with hitc=1): 13.6%; AC50 ([4]; antagonist candidates, inactive samples arbitrarily set to AC50=1,000 μM): > 92 µM; AC50 [11]: 1.5 µM
3 | c1csc(-c2ccc(-c3cccs3)s2)c1 [alpha-Terthiophene] | FP | – | – | 0 | -0.0945% | – | >92 | 0 | 20.8 % of Control | 1 | 7.5 % of Control | – | 0 | 0 | 25.8% | – | – | 0 | -0.547% | 0 | AC50 ([1]; agonist, read-out: TRb-coa AC50): > 92 µM; AC50 [6]: > 92 µM; tr-followup-rxr-bla-agonist-1 hitc ([12]; hit call from tcpl): 1; Emax ([12]; read-out: EMax (% of Control) tr-followup-rxr-bla-agonist-1): 65.3%; AC50 ([12]; read-out: tr-followup-rxr-bla-agonist-1 AC50): 0.728 µM; AC50 [13]: 80.3 µM; AC50 ([7]; agonist, read-out: TRb-bla AC50): > 92 µM; AC50 [14]: > 92 µM; AC50 ([9]; agonist, read-out: TRa-coa AC50): > 92 µM

The next lines start with results.

Row | Categorization Code [5] | Classification [5] | Structure (SMILES) | AC50 [1, 15] | TRb-coa hitc ([1]; agonist) | Emax [1] | AC50 [2, 16] | GLOBAL CYTOTOXICITY cytotox.median [3] | GLOBAL CYTOTOXICITY cytotox.number_Active [3] | EMax (% of Control) gh3-tre-agonist [4] | GH3-TRE-Ag AC50 hitc [4] | EMax (% of Control) gh3-tre-agonist-followup-1_agonist [6] | AC50 ([6]; confirmation, agonist mode) | GH3-TRE-Ag-Followup hitc [6] | TRb-bla hitc ([7]; agonist) | Emax [7] | AC50 at 24 h [8] | AC50 [9, 18] | TRa-coa hitc ([9]; agonist) | Emax [9] | TR_LUC_GH3_Antagonist_viability hitc [10] | also measured
4 | RXR-Ag | RXR-Ag | CC1=C(/C=C/C(C)=C/C=C/C(C)=C/C(=O)O)C(C)(C)CCC1 [all trans-Retinoic acid, reference compound] | > 92 µM | 0 | 0% | > 92 µM | – | 0 | 29.3 % of Control | 1 | 97.2 % of Control | 1.16 µM | 1 | 1 | 31.1% | 66.7 µM | > 92 µM | 0 | -0.347% | 1 | GLOBAL CYTOTOXICITY cytotox.median [3, 19]: >92; AC50 ([4]; primary qHTS, agonist mode, 24 h, top concentration 92 μM): 0.234 µM
5 | RXR-Ag | RXR-Ag | CC1=C(/C=C/C(C)=C\C=C\C(C)=C\C(=O)O)C(C)(C)CCC1 [9-cis Retinoic acid, reference compound] | > 92 µM | 0 | -0.274% | > 92 µM | – | 0 | 31.8 % of Control | 1 | 76.0 % of Control | 2.07 µM | 1 | 0 | 5.7% | > 92 µM | > 92 µM | 0 | -0.13% | 0 | GLOBAL CYTOTOXICITY cytotox.median [3, 19]: >92; AC50 [7, 17]: > 92 µM
